The structures appear in SMILES notation.

This is an account of results in PMC6193938, “Characterization of a novel AICARFT inhibitor which potently elevates ZMP and has anti-tumor activity in murine models” (Scientific Reports, 2018).

For assay [1], the system named is cell lines of Table 1. Put plainly: MS detection of ZMP in cultured cells, average over cell lines. In kind it is cell-based. The note with it: Homo sapiens. As to the method:
Cells lines were acquired from cell banks, see supplemental material, grown using the cell banks recommended culture conditions (Supplemental Table 3). In some experiments noted “low folate” the cells were washed and grown in folate free RPMI-1640 media (Gibco #27016-021) supplemented with 5 ml 1 M Hepes, 5 ml 100 mM Na pyruvate, 2.5 mg/ml glucose and 10% defined FBS (Hyclone #SH30070) per 500 mL media for 5–7 days to deplete intracellular folate levels prior to the start of the experiment. Where noted, cells were maintained in complete “high folate” RPMI-1640 media (ATCC #30-2001) with 10% defined FBS to contrast with the low folate conditions.
ZMP was detected in cultured cells via mass spec analysis. Cells were plated in 96-well plates at 25,000 cells per well in 100 µL with either high or low folate RPMI media and incubated overnight at 37 °C with 5% CO2. Cells were treated with inhibitor compounds for 16 hours, 0.5% DMSO final concentration. […]
ZMP, AICAr and dUMP were detected using positive ion TurboIonSpray® multiple reaction monitoring mode and the data were processed with AB Sciex MultiQuant™. Back-calculated ZMP concentrations were fit to a four-parameter logistic equation using ACTIVITYBASE 4.0 to determine EC50 values relative to the maximum observed metabolite levels.

Assay [2] has as its system MDA-MB-231met2 cells. In words: MS detection of ZMP in cultured cells. In kind it is cell-based, human. To be noted: regular RPMI, calculated with 4 pL cell volume. As to the method:
To mimic human plasma levels, low folate media is traditionally used in which the folate comes only from the defined fetal bovine serum. […] Because LSN3213128 would be dosed in mice on normal diet, cell line screening was performed under standard tissue culture conditions to identify cell lines sensitive to treatment under high folate conditions. In order to compare tissue culture values with tumor levels, an average 4 pL cell volume[36] was used to calculate cellular ZMP concentrations. In MDA-MB-231[…] cells using regular RPMI, the peak intracellular ZMP levels are about 770 μM while in the salvage deficient A9 cells ZMP is 6,500 μM. […] It is not surprising that in vivo in mice on standard chow where folate plasma levels are >10-fold lower than tissue culture that tumor ZMP levels are also lower. […] ZMP was detected in cultured cells via mass spec analysis. Cells were plated in 96-well plates at 25,000 cells per well in 100 μL with either high or low folate RPMI media and incubated overnight at 37 °C with 5% CO2. […] […] dUMP were detected using positive ion TurboIonSpray® multiple reaction monitoring mode and the data were processed with AB Sciex MultiQuantTM. Back-calculated ZMP concentrations were fit to a four-parameter logistic equation using ACTIVITYBASE 4.0 to determine EC50 values relative to the maximum observed metabolite levels.

For assay [3], the target named is T1, ALK (Homo sapiens, UniProt Q9UM73).
T1 construct: purchased CEREP Panlabs (Eurofins)
T1 sequence (Q9UM73 19-1620): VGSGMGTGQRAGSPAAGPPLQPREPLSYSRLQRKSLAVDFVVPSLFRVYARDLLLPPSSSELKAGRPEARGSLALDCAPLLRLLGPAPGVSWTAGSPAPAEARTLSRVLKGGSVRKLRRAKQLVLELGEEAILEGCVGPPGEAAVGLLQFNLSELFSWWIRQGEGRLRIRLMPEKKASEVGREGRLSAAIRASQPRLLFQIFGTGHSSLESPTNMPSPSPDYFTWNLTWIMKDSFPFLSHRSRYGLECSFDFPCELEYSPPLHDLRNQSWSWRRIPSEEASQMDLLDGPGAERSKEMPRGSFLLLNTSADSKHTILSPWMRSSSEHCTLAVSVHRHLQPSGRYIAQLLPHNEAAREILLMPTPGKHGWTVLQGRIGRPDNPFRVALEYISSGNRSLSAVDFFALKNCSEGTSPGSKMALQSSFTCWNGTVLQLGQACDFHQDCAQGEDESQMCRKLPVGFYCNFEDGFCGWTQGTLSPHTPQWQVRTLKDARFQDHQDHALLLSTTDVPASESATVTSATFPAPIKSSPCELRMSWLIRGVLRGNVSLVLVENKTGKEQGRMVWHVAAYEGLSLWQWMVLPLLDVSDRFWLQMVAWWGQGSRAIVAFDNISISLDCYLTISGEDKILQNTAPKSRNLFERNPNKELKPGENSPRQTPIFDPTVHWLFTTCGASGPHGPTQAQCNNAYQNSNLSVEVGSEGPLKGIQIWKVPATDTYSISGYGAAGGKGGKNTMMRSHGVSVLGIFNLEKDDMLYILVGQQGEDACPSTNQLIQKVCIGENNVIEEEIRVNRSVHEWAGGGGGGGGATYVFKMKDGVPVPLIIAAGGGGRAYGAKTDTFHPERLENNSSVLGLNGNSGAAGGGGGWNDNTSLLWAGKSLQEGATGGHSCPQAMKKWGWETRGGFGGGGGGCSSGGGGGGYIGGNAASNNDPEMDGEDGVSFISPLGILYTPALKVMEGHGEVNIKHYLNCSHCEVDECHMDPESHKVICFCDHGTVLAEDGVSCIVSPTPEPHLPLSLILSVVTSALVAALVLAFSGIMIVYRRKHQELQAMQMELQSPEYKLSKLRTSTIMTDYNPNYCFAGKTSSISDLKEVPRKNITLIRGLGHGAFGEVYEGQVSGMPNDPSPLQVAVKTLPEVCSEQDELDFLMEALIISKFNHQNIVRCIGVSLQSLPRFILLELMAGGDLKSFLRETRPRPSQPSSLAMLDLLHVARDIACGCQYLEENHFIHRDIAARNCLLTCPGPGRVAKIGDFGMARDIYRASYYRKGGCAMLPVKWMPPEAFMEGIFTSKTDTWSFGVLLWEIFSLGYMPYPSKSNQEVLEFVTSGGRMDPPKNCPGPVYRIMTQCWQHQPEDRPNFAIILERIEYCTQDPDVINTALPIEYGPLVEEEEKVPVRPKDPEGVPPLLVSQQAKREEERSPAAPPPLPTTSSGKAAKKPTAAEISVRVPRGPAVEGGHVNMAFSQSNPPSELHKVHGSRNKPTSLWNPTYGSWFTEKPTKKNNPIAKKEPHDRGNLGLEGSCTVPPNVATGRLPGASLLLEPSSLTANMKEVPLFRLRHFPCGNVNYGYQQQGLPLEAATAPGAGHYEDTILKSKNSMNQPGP
In words: CEREP protein kinase assay. In kind it is biochemical.

Assay [4] has as its target T2, CK1e (Homo sapiens, UniProt P49674).
T2 construct: purchased CEREP Panlabs (Eurofins)
Put plainly: CEREP protein kinase assay. In kind it is biochemical.

In assay [5] the target is T3, FGFR4 (Homo sapiens, UniProt P22455).
T3 construct: purchased CEREP Panlabs (Eurofins)
T3 sequence (P22455 22-802): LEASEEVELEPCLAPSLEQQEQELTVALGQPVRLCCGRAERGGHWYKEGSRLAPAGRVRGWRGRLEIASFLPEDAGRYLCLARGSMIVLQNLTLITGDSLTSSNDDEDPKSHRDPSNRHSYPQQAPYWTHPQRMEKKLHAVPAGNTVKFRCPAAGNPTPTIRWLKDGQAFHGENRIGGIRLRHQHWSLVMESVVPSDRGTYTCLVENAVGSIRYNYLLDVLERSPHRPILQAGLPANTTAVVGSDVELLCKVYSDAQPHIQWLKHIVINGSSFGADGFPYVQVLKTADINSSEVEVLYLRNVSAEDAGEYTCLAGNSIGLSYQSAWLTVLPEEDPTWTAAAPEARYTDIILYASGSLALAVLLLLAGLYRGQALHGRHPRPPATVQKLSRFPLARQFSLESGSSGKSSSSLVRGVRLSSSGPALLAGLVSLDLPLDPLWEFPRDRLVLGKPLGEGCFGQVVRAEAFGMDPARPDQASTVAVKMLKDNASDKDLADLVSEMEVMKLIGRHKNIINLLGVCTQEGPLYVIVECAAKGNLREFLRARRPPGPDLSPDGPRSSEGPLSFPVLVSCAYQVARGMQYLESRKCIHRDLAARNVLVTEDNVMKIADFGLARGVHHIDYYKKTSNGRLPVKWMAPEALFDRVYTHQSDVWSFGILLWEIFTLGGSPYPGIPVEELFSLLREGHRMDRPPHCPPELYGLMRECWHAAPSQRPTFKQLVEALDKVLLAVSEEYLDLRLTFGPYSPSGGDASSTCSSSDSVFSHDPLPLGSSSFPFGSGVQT
In words: CEREP protein kinase assay. The class given is biochemical.

Assay [6] concerns the target T4, PDK1 (Homo sapiens, UniProt O15530).
T4 construct: purchased CEREP Panlabs (Eurofins)
T4 sequence (O15530 1-556): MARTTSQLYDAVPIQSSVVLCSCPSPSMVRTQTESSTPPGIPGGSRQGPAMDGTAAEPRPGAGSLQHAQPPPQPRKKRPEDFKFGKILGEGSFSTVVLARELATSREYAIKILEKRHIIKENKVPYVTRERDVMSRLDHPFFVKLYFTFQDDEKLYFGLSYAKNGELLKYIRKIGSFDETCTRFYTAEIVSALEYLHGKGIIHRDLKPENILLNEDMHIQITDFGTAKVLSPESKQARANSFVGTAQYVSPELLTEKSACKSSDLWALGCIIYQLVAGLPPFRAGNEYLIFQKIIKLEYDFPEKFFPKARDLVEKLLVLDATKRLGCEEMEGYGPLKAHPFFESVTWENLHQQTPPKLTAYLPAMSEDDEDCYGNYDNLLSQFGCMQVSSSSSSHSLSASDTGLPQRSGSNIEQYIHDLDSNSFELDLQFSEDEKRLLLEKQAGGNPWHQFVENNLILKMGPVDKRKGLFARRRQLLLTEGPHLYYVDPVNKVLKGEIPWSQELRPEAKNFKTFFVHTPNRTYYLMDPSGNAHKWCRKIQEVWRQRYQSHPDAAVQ
Put plainly: CEREP protein kinase assay. In kind it is biochemical.

The target of assay [7] is T5, PLK3 (Homo sapiens, UniProt Q9H4B4).
T5 construct: purchased CEREP Panlabs (Eurofins)
T5 sequence (Q9H4B4 whole entry): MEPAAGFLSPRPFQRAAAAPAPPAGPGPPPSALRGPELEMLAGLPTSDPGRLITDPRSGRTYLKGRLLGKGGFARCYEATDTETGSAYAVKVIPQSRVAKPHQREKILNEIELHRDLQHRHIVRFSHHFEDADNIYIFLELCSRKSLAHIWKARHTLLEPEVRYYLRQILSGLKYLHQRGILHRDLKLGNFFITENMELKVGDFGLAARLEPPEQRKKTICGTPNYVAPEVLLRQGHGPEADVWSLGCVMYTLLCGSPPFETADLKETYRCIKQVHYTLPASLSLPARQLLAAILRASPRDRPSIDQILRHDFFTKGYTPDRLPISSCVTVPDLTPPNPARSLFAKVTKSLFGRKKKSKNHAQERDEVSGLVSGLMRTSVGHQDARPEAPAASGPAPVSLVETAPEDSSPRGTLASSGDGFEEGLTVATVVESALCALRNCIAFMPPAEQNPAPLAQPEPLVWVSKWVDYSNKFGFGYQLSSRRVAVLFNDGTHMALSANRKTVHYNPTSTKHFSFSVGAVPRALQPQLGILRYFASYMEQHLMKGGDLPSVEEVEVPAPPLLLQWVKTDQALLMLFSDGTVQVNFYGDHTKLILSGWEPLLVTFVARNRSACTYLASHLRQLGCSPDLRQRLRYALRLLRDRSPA
In words: CEREP protein kinase assay. The class given is biochemical.

T2 sequence (P49674 whole entry): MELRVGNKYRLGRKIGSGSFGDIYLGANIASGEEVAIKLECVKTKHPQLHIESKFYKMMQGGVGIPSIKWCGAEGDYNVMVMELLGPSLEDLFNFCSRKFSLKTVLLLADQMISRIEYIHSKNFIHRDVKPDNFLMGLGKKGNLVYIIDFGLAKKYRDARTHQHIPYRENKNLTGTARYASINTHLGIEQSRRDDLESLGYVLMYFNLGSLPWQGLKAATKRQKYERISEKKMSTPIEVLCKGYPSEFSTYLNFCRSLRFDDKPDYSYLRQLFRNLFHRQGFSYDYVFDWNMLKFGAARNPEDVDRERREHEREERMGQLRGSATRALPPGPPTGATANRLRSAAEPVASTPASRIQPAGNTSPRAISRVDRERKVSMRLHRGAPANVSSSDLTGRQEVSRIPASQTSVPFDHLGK

A word on the EC50: it is the concentration at which the effect is half-maximal. What is called inhibition is the relative decrease from the control value, in per cent. As to `O=c1[nH]ccc2cc(F)c(NS(=O)(=O)c3ccc(N4CC[C@@H](O)C4)s3)cc12` [LSN3213128, N-(6-Fluoro-1-oxo-1,2-dihydroisoquinolin-7-yl)-5-[(3R)-3-hydroxypyrrolidin-1-yl]thiophene-2-sulfonamide], the EC50 stood at 4.9 ± 2.6 nM in assay [1] (low folate media, 12 cell lines) and 1210 nM in assay [1] (normal RPMI, 8 cell lines). For the same molecule, the “peak intracellular ZMP levels” value in assay [2] is “about 770 μM”. Also, the inhibition at 0.2 µM in assay [3] (@ 0.2 uM) is -16.7%; in assay [4] (@ 0.2 uM), -4.69%; in assay [5] (@ 0.2 uM), 0.737%; in assay [6] (@ 0.2 uM), 14.1%; in assay [7] (@ 0.2 uM) it was 13.4%. Besides, the inhibition at 2 µM in assay [3] (@ 2 uM) is 7.47%; in assay [4] (@ 2 uM) it was -1.12%; in assay [5] (@ 2 uM), 13.2%; in assay [6] (@ 2 uM), 15.8%; in assay [7] (@ 2 uM), 12%. Besides, the inhibition at 20 µM in assay [3] (@ 20 uM) was 31.8%; in assay [4] (@ 20 uM), 7.65%; in assay [5] (@ 20 uM), 8.82%; in assay [6] (@ 20 uM), 26.8%; in assay [7] (@ 20 uM), 60.5%.
